Test results taken from ChEMBL document CHEMBL5360550 (Eur J Med Chem, 2023).
Active and inactive are the calls of the source. The rule behind the calls is not given here.

Key:
[1] = Selectivity index, ratio of IC50 for cytotoxicity against rat L6 cells to IC50 for antiprotozoal activity against chloroquine resistant Plasmodium falciparum K1 infected in human erythrocytes; assay type: toxicity, cell-based; settings: read-out: Ratio IC50
[2] = Cytotoxicity against rat L6 cells assessed as reduction in cell viability incubated for 70 hrs by Alamar blue based microplate fluorescence assay; assay type: toxicity
[3] = system: Trypanosoma brucei rhodesiense; test: In vivo antiprotozoal activity against acute hemolymphatic stage Trypanosoma brucei rhodesiense STIB900 infected in NMRI mouse assessed as reduction of parasitaemia at 5 mg/kg, ip for 4 days consecutive and measured upto 60 days relative to control; assay type: functional
AT rich DNA [4] = system: AT rich DNA
Description: Binding affinity to double stranded [poly(dA-dT)2] DNA (unknown origin) minor groove assessed as increase in melting temperature by spectrophotometer analysis

[5] = system: Trypanosoma brucei rhodesiense; test: Antiprotozoal activity against long slender blood stream form Trypanosoma brucei rhodesiense STIB900 assessed as parasite growth inhibition incubated for 70 hrs by resazurin based microplate fluorometer analysis; assay type: functional, organism-based; settings: STIB900, 70 h
[6] = Selectivity index, ratio of IC50 for cytotoxicity against rat L6 cells to IC50 for antiprotozoal activity against long slender blood stream form Trypanosoma brucei rhodesiense STIB900; assay type: toxicity, cell-based; settings: read-out: Ratio IC50
AT rich DNA [7] = test: Binding affinity to double stranded [poly(dA-dT)2] DNA (unknown origin) minor groove assessed as increase in positive induced CD signal in 360 to 400 nanometer absorption range incubated for 10 mins by circular dichroism spectroscopy; assay type: nucleic-acid assay
Plasmodium falciparum = test: Antiprotozoal activity against chloroquine resistant Plasmodium falciparum K1 infected in human erythrocytes assessed as parasite growth inhibition incubated for 48 hrs by [3H]-hypoxanthine incorporation assay based Betaplate liquid scintillation counter method; assay type: functional, organism-based; settings: K1, Erythrocyte
[8] = system: Trypanosoma brucei rhodesiense; test: In vivo antiprotozoal activity against acute hemolymphatic stage Trypanosoma brucei rhodesiense STIB900 infected in NMRI mouse assessed as reduction of parasitaemia at 10 mg/kg, ip for 4 days consecutive and measured upto 60 days relative to control; assay type: functional; parameters: scale not given: the % may be the effect or the level left; settings: time 4 day

For `N=C(N)c1ccc(-c2ccc(-c3cc4ccc(C(=N)N)cc4[nH]3)s2)cc1`, the selectivity ratio [1] was 1720, the IC50 at 70 h [2] was 12.4 µM and the Activity ([3]; time 4.0 day) was “inactive”. For the same compound, the ΔTm (AT rich DNA [4]) was > 30 °C, the IC50 [5] was 0.012 µM and the selectivity ratio [6] was 1030. The Activity (AT rich DNA [7]) was “Active” and the IC50 (Plasmodium falciparum) was 0.0072 µM.

For `N=C(N)c1ccc(-c2ccc(-c3cc4ccc(C(=N)N)cc4[nH]3)o2)cc1`, the selectivity ratio [1] was 2800, the IC50 at 70 h [2] was 12.9 µM and the Activity ([3]; time 4.0 day) was “inactive”. For the same compound, the ΔTm (AT rich DNA [4]) was > 30 °C, the IC50 [5] was 0.012 µM and the selectivity ratio [6] was 1080. The Activity (AT rich DNA [7]) was “Active” and the IC50 (Plasmodium falciparum) was 0.0046 µM.

For `N=C(N)c1ccc(-c2ccc(-c3cc4cc(C(=N)N)ccc4[nH]3)o2)nc1`, the selectivity ratio [1] was 8690, the IC50 at 70 h [2] was 50.4 µM and the Activity ([3]; time 4 day) was 75%. The ΔTm (AT rich DNA [4]) was 27 °C, the IC50 [5] was 0.006 µM and the selectivity ratio [6] was 8400. It also gave an IC50 (Plasmodium falciparum) of 0.0058 µM.

`N=C(N)c1ccc(-c2ccc(-c3cc4cc(C(=N)N)ccc4[nH]3)s2)cc1` showed a selectivity ratio [1] of 6070, an IC50 at 70 h [2] of 17 µM and an Activity ([3]; time 4 day) of 50%. For the same compound, the ΔTm (AT rich DNA [4]) was 29 °C, the IC50 [5] was 0.006 µM and the selectivity ratio [6] was 2830. For the same compound, the IC50 (Plasmodium falciparum) was 0.0028 µM.

`N=C(N)c1ccc(-c2ccc(-c3ccc(C(=N)N)cc3)o2)cc1` [FURAMIDINE] gave an Activity ([3]; time 4 day) of 25% and a ΔTm (AT rich DNA [4]) of 25 °C.

For `N=C(N)c1ccc(-c2ccc(-c3cc4ccc(C(=N)N)cc4[nH]3)s2)nc1`, the IC50 at 70 h [2] was 14.5 µM, the Activity ([3]; time 4.0 day) was “inactive” and the ΔTm (AT rich DNA [4]) was 29 °C. The IC50 [5] was 0.015 µM and the selectivity ratio [6] was 966.

Compound `N=C(N)c1ccc(-c2ccc(-c3cc4cc(C(=N)N)ccc4[nH]3)o2)cc1` has a selectivity ratio [1] of 5070, an IC50 at 70 h [2] of 14.2 µM and an Activity ([3]; time 4 day) of 75%. The ΔTm (AT rich DNA [4]) was 29 °C, the IC50 [5] was 0.002 µM and the selectivity ratio [6] was 7100. For the same compound, the Activity (AT rich DNA [7]) was “Active” and the IC50 (Plasmodium falciparum) was 0.0028 µM.

`N=C(N)c1ccc(-c2ccc(-c3cc4cc(C(=N)N)ccc4[nH]3)[se]2)cc1` gave a selectivity ratio [1] of 5510, an IC50 at 70 h [2] of 21.5 µM and an Activity ([3]; time 4 day) of 50%. For the same compound, the ΔTm (AT rich DNA [4]) was > 30 °C, the IC50 [5] was 0.003 µM and the selectivity ratio [6] was 7170. The Activity (AT rich DNA [7]) was “Active” and the IC50 (Plasmodium falciparum) was 0.0039 µM.

For `Cc1cc(C(=N)N)ccc1-c1ccc(-c2cc3ccc(C(=N)N)cc3[nH]2)o1`, the IC50 at 70 h [2] was 5.1 µM, the Activity ([3]; time 4.0 day) was “inactive” and the ΔTm (AT rich DNA [4]) was > 30 °C. It also gave an IC50 [5] of 0.006 µM and a selectivity ratio [6] of 850.

With `N=C(N)c1ccc(-c2ccc(-c3cc4ccc(C(=N)N)cc4[nH]3)o2)nc1` the selectivity ratio [1] was 5440, the IC50 at 70 h [2] was 34.8 µM and the Activity ([3]; time 4 day) was 75%. The ΔTm (AT rich DNA [4]) was 28 °C, the IC50 [5] was 0.017 µM and the selectivity ratio [6] was 2050. The Activity (AT rich DNA [7]) was “Active” and the IC50 (Plasmodium falciparum) was 0.0064 µM.

For `N=C(N)c1ccc2cc(-c3ccc(-c4ccc(C(=N)N)nc4)o3)[nH]c2c1`, the selectivity ratio [1] was 3940, the IC50 at 70 h [2] was 14.2 µM and the Activity ([3]; time 4.0 day) was “inactive”. It also gave a ΔTm (AT rich DNA [4]) of 28 °C, an IC50 [5] of 0.007 µM and a selectivity ratio [6] of 2030. The IC50 (Plasmodium falciparum) was 0.0036 µM.

`N=C(N)c1ccc(-c2ccc(-c3nc4ccc(C(=N)N)cc4[nH]3)s2)cc1` gave a selectivity ratio [1] of 1900, an IC50 at 70 h [2] of 22.4 µM and an Activity [8] of 75%. The ΔTm (AT rich DNA [4]) was > 30 °C, the IC50 [5] was 0.027 µM and the selectivity ratio [6] was 829. The IC50 (Plasmodium falciparum) was 0.0118 µM.

Compound `N=C(N)c1ccc(-c2ccc(-c3nc4cc(C(=N)N)ccc4[nH]3)o2)cc1` has a selectivity ratio [1] of 105, an IC50 at 70 h [2] of 10.1 µM and an Activity ([3]; time 4 day) of 25%. It also gave a ΔTm (AT rich DNA [4]) of 25 °C, an IC50 [5] of 0.122 µM and a selectivity ratio [6] of 82. It also gave an IC50 (Plasmodium falciparum) of 0.0958 µM.

Work on `COc1cc(C(=N)N)ccc1-c1ccc(-c2cc3ccc(C(=N)N)cc3[nH]2)o1` yielded an IC50 at 70 h [2] of 11 µM, a ΔTm (AT rich DNA [4]) of 27 °C and an IC50 [5] of 0.039 µM. The selectivity ratio [6] was 283.
